Assay results taken from EP4043466B1, “PRC2 INHIBITORS” (Mirati Therapeutics, Inc., priority 2018, dated 2019).

Tests used:
[1] = target: purified human, His-tagged PRC2 complex (Homo sapiens, UniProt O75530+Q15910); experiment: Hot Spot HMT assay: inhibition of PRC2 enzymatic activity (transfer of tritiated methyl from SAM to core histone, filter binding); format: biochemical; conditions: Inhibition of PRC2-mediated enzymatic activity; 10 nM PRC2 complex, 0.05 mg/ml core histone H3, 1 uM 3H-SAM, 1 hr at 30°C
Chain of purified human, His-tagged PRC2 complex (Q15910 whole entry): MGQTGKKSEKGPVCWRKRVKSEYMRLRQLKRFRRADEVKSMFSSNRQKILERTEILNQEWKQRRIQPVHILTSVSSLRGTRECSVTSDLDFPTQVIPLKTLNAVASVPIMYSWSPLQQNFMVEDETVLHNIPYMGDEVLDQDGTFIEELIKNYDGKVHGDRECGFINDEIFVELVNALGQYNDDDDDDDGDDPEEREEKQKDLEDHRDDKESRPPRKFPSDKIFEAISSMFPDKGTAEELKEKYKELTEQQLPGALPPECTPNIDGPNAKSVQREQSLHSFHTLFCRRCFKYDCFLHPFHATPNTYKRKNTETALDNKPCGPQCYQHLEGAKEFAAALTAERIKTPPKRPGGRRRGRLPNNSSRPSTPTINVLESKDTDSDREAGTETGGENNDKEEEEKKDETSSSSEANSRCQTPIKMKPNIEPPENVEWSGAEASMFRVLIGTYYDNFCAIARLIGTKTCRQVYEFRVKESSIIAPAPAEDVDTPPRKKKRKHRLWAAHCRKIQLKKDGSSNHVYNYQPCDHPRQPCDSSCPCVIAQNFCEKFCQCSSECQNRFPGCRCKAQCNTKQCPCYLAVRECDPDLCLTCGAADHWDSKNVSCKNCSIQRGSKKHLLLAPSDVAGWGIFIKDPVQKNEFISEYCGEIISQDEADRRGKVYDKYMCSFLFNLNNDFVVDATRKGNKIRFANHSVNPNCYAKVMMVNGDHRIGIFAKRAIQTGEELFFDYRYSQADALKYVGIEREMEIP
Chain of purified human, His-tagged PRC2 complex (O75530 whole entry): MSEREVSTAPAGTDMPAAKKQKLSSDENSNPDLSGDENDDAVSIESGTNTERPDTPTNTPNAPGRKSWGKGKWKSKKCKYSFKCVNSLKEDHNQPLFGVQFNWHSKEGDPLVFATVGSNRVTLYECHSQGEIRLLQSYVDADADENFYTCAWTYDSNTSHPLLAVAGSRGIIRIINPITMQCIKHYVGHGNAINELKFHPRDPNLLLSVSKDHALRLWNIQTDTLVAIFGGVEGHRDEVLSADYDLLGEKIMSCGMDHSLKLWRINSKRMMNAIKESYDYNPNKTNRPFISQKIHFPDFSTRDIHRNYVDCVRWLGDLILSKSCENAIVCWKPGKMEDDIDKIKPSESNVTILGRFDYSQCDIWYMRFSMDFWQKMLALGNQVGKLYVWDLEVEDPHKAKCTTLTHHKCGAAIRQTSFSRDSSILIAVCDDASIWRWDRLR
Chain of purified human, His-tagged PRC2 complex (Q15022 whole entry partner): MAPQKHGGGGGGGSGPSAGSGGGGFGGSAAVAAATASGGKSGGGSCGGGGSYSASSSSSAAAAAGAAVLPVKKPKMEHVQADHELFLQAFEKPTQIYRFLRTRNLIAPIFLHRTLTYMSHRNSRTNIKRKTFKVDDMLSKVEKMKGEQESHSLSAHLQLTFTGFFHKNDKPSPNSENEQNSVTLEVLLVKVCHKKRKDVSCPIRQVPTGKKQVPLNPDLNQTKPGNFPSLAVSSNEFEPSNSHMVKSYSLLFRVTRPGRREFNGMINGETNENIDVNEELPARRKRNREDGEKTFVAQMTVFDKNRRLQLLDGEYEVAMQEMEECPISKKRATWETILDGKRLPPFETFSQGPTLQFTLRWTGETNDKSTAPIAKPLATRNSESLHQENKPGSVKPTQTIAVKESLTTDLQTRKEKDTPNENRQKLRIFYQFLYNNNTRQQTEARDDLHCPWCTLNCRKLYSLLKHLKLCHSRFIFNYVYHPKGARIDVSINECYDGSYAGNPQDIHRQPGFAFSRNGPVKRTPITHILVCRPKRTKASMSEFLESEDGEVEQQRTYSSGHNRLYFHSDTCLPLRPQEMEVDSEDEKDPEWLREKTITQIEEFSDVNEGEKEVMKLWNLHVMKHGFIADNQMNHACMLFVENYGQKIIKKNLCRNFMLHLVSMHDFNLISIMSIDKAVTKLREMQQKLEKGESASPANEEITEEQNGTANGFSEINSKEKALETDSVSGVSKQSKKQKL
Chain of purified human, His-tagged PRC2 complex (Q6ZN18 whole entry partner): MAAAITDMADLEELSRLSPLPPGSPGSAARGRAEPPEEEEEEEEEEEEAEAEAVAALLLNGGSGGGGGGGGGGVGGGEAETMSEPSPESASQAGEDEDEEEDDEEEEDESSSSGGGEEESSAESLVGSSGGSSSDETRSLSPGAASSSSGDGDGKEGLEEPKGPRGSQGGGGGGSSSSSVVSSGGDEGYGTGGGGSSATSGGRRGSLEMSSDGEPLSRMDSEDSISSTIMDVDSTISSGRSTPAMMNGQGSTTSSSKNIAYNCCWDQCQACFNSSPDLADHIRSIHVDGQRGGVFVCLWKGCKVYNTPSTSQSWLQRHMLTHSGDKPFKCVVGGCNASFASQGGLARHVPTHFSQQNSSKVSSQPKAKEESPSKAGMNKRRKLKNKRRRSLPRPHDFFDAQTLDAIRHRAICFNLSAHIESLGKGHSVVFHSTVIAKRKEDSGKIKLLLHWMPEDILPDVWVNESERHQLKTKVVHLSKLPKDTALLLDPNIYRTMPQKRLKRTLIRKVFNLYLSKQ
Chain of purified human, His-tagged PRC2 complex (Q09028 whole entry partner): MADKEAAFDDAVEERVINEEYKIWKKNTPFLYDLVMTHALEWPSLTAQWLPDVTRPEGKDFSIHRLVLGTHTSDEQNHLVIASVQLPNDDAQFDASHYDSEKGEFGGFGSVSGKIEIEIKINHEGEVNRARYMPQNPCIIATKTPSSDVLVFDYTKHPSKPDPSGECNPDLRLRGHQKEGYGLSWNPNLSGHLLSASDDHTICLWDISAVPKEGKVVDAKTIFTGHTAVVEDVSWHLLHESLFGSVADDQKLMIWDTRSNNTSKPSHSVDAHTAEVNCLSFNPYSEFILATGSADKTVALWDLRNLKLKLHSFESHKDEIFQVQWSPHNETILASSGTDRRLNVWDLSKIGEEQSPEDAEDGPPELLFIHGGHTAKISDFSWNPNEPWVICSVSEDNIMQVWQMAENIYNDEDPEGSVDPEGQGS
In short: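 Serial compound dilutions starting at 1.0 µM were pre-incubated 20 min at 30°C with 10 nM complex (His-EZH2, Flag-EED, His-SUZ12, His-AEBP2, His-RbAp48) and 0.05 mg/ml core H3. Reaction ran 1 hr at 30°C after adding 1 uM [3H]-SAM; scintillation counting followed filtration.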

[2] = tested on: PRC2-mediated histone H3 methylation; experiment: Tri-Methyl Histone H3 (Lys 27) Sandwich ELISA in Pfeiffer cells: inhibition of PRC2-mediated histone H3 methylation; format: cell-based, human; conditions: Homo sapiens; Inhibition of EZH2-mediated histone H3 trimethylation; Pfeiffer cells (EZH2 A677G), 96 hours incubation
From the text: The Pfeiffer cell line was established from a […] from a patient having metastatic diffuse large B-cell lymphoma (DLBCL). This cell line expresses a mutant form of the EZH2 enzyme (A677G) that results in enhanced EZH2 activity leading to increased methylation of histone H3 Lys27. Increased trimethylation of histone H3 Lys27 is believed to be implicated in tumorgenesis and poor clinical prognosis in lymphomas (McCabe et al., (2012) Nature 492:108-112).
Inhibition of PRC2-mediated histone H3 methylation by compounds of Formula (I) was measured by ELISA using a Tri-Methyl Histone H3 (Lys 27) Sandwich ELISA Kit (Cell Signaling Tech #7866C) in accordance with the manufacturer's instructions. Briefly, Pfeiffer cells were cultured in RPMI medium supplemented with 10% fetal bovine serum and 1% penicillin and 1% streptomycin in 96 well culture plates at 37°C to a density of 8000 cells/90µl/well and the cells were harvested. A series of 3-fold serial dilutions of each test compound of Formula (I) were prepared in RPMI medium and added to the cells at final concentrations ranging from 1µM to 0.15 nM. The plates were incubated at 37°C for 96 hours.
After incubation, the cells were pelleted by centrifugation in a pre-cooled 4°C rotor at 1, 100 rpm for 10 min and the supernatant was removed by aspiration. The cell pellet was resuspended in 55µl of Lysis Buffer (0.4M HCl) and incubated on ice with periodic shaking for 30 minutes. The lysed cells were subjected to centrifugation at 4, 200 rpm for 10 min at 4°C and the supernatant containing acid-soluble proteins was collected and the remainder discarded. The acid-soluble proteins were brought to a neutral pH by the addition of 20 µl of Neutralization Buffer (1 M Sodium phosphate, dibasic (pH 12.5), 2.5 mM DTT and 1 mM PMSF) and the neutralized lysates were analyzed by ELISA.
A 65 µl aliquot of each cell lysate was added to a well of a microwell strip, the microwells were sealed using tape and incubated either at 37°C for two hours or at 4°C overnight. After incubation, the tape was removed at the microwells were washed four times using 200 µl of 1X Wash Buffer. To each washed microwell, a 100 µl aliquot of an antitrimethyl histone H3 Lys27 Detection Antibody solution was added and the microwells were incubated at 37°C for one hour. The Detection Antibody solution was removed by aspiration and the wells were washed four times each using 200 µl of 1X Wash Buffer.
A 100 µl aliquot of an HRP-linked secondary antibody was added to each well, the wells were sealed with tape and incubated at 37°C for 30 min. The HRP-linked secondary antibody solution was removed by aspiration and the wells were washed four times using 200 µl of 1X Wash Buffer. A 100 µl aliquot of a TMB substrate was added to each well, the wells were sealed with tape and incubated at 37°C for 10 min or 25°C for 30 min. The reaction was stopped by the addition of 100 µl aliquot of a STOP solution and the plate was shaken briefly. The degree of histone H3 trimethylation was determined using a spectrophotometric readout by measuring the absorbance at 450 nm and then calculating the amount of trimethylated histone H3. A = ≤100 nM; B = >100 nM - ≤500 nM; C = >500 nM and N.D. = not determined.

| Structure (SMILES) | IC50 [1] [nM] | IC50 [2] [nM] |
| --- | --- | --- |
| N#Cc1cn2c(NCc3c(F)ccc4c3CCO4)ncc(-c3ccccc3)c2n1 [Example 46, 5-(((5-fluoro-2,3-dihydrobenzofuran-4-yl)methyl)amino)-8-phenylimidazo[1,2-c]pyrimidine-2-carbonitrile] | < 100 | 100 to 500 |
| CN(C)Cc1ccc(-c2cnc(NCc3c(F)ccc4c3CCO4)n3cc(C#N)nc23)cc1F [Example 63, 8-(4-((dimethylamino)methyl)-3-fluorophenyl)-5-(((5-fluoro-2,3-dihydrobenzofuran-4-yl)methyl)amino)imidazo[1,2-c]pyrimidine-2-carbonitrile] | < 100 | ≤ 100 |
| N#Cc1cn2c(NCc3c(F)ccc4c3CCO4)ncc(-c3ccc(CN4CC5CC5C4)cc3)c2n1 (stereo not shown) [Example 52, 8-(4-((3-azabicyclo[3.1.0]hexan-3-yl)methyl)phenyl)-5-(((5-fluoro-2,3-dihydrobenzofuran-4-yl)methyl)amino)imidazo[1,2-c]pyrimidine-2-carbonitrile] | < 100 | ≤ 100 |
| N#Cc1cn2c(NCc3c(F)ccc4c3CCO4)ncc(-c3cccnc3CO)c2n1 [Example 148, 5-(((5-fluoro-2,3-dihydrobenzofuran-4-yl)methyl)amino)-8-(2-(hydroxymethyl)pyridin-3-yl)imidazo[1,2-c]pyrimidine-2-carbonitrile] | < 100 | 100 to 500 |
| N#Cc1cn2c(NCc3c(F)ccc4c3CCO4)ncc(-c3ccc(CN4CC(F)(F)C4)cc3)c2n1 [Example 51, 8-(4-((3,3-difluoroazetidin-1-yl)methyl)phenyl)-5-(((5-fluoro-2,3-dihydrobenzofuran-4-yl)methyl)amino)imidazo[1,2-c]pyrimidine-2-carbonitrile] | < 100 | ≤ 100 |
| N#Cc1cn2c(NCc3c(F)ccc4c3CCO4)ncc(-c3cnn4c3CCC4)c2n1 [Example 80, 8-(5,8-dihydro-4H-pyrrolo[1,2-b]pyrazol-3-yl)-5-(((5-fluoro-2,3-dihydrobenzofuran-4-yl)methyl)amino)imidazo[1,2-c]pyrimidine-2-carbonitrile] | < 100 | 100 to 500 |
| Cn1nncc1-c1cnc(NCc2c(F)ccc3c2CCO3)n2cc(C#N)nc12 [Example 143, 5-(((5-fluoro-2,3-dihydrobenzofuran-4-yl)methyl)amino)-8-(1-methyl-1H-1,2,3-triazol-5-yl)imidazo[1,2-c]pyrimidine-2-carbonitrile] | < 100 | ≤ 100 |
| COc1cc(-c2cnc(NCc3c(F)ccc4c3CCO4)n3cc(C#N)nc23)c(F)cn1 [Example 123, 5-(((5-fluoro-2,3-dihydrobenzofuran-4-yl)methyl)amino)-8-(5-fluoro-2-methoxypyridin-4-yl)imidazo[1,2-c]pyrimidine-2-carbonitrile] | < 100 | ≤ 100 |
| Cc1ccc(C#N)cc1-c1cnc(NCc2c(F)ccc3c2CCO3)n2cc(C#N)nc12 [Example 177, 8-(5-cyano-2-methylphenyl)-5-(((5-fluoro-2,3-dihydrobenzofuran-4-yl)methyl)amino)imidazo[1,2-c]pyrimidine-2-carbonitrile] | 100 to 500 | 100 to 500 |
| Cn1cc(-c2cnc(NCc3c(F)ccc4c3CCO4)n3cc(C#N)nc23)c(C#N)n1 [Example 224, 8-(3-cyano-1-methyl-1H-pyrazol-4-yl)-5-(((5-fluoro-2,3-dihydrobenzofuran-4-yl)methyl)amino)imidazo[1,2-c]pyrimidine-2-carbonitrile] | 100 to 500 | 100 to 500 |
| N#Cc1cn2c(NCc3c(F)ccc4c3CCO4)ncc(-c3ccc(CN4CC(O)C4)cc3)c2n1 [Example 150, 5-(((5-fluoro-2,3-dihydrobenzofuran-4-yl)methyl)amino)-8-(4-((3-hydroxyazetidin-1-yl)methyl)phenyl)imidazo[1,2-c]pyrimidine-2-carbonitrile] | < 100 | ≤ 100 |
